Target: T1, Cyclin E/CDK2 (Homo sapiens, UniProt P24941)
T1 construct: made in house; host or cells: SF9 insect cells, baculovirus co-infection
Assay: In vitro cyclin E/CDK2 kinase assay (33P-ATP, SPA beads), IC50 determination
Format: biochemical

- IC50: 200 nM
Structure (SMILES): Cn1cc(-c2cnn3c(Nc4ccc(-n5ccnc5)cc4)cc(C4CCCNC4)nc23)cn1 (stereo not shown) [Example 90-C]

— patent US7601724B2, “Substituted pyrazolo[1,5-a]pyrimidines as protein kinase inhibitors” (Schering Corporation, priority 2002, dated 2009)
